Marks after values point to notes of the source that are not given here. Ends that are not written are not given here.
Assays:
[1] = test system: Masugi nephritis rat model; assay: Masugi nephritis rat model; conditions: for urine protein level: 24 h urine; for spleen index / Serum creatinine level: after three weeks of treatment; for spleen index: placebo 4.8 ± 1.1, normal 2.4 ± 0.1; for Serum creatinine level: placebo 265 ± 212, normal 80 ± 1
thymus gland = assay: Immunity organ weight test, thymus gland index; assay type: in vivo, BALB/c mice; conditions: for weight of thymus gland (thymus gland index), X ± SD (%): healthy mice, saline 0.12 ± 0.02; for effect on the weight of the thymus gland (summary): statistically significant difference from saline in any of the dosage groups 0.5-500 μg/kg/day
Method: (§1) One day after the last test substance administration (day 16), the liver, spleen, and thymus gland were separated and blotted dry with filter paper and weighed. The phagocytosis index α was calculated as below: α=(^3√{square root over ( )}K)(W÷WLS)
Thymus gland index (%)=(thymus weight/body weight)×100%

mononuclear phagocyte = assay: Carbon particle clearance test, phagocytosis function; assay type: in vivo, BALB/c mice; parameters: key to X ± SD (phagocytotic index): α = cube root of K × (body weight ÷ liver+spleen weight); conditions: for X ± SD (phagocytotic index): healthy mice, peptide 5 μg/kg/day i.p. 15 days (IFN-γ, IL-2 3×10^5 IU/kg/day), saline 5.1 ± 0.6; for effect on the phagocytotic activity of mononuclear phagocyte (summary): statistically significant difference from saline in any of the dosage groups 0.5-500 μg/kg/day
Method: On the next day after the last test substance administration (day 16), the mice were injected with […] body weight India ink (5 times dilution with normal saline) from the tail vein.
One minute and five minutes after Indian ink injection, 20 μl blood was obtained from the eye canthus with a heparinized tubing. The blood was mixed with 2 ml 0.1% w/v Na2CO3 and then OD680 nm obtained. The outline clear index K was calculated by the following formula: K=(lgA1−lgA2)÷(t2−t1)
as §1

interferon (IFN) = test system: interferon (IFN); parameters: species or system BALB/c mice; conditions: mouse, in vivo; for activity of T lymphocyte in secreting IFN, X ± SD (IU): ip
NK cell = NK cell cytotoxicity activity test (spleen cells of treated mice against YAC-1 target cells, MTT); assay type: in vivo, BALB/c mice; conditions: for NK cell cytotoxic activity, X ± SD (%): healthy mice; for effect on the cytotoxic activity of NK cells (summary): statistically significant difference from saline in any of the dosage groups 0.5-500 μg/kg/day
Method: (§2) The above substances were all dissolved in 0.5 ml saline and injected intraperitoneal (i.p.) for 15 continuous days, once per day.
(§3) Ten mice per group. The day after the last test substance administration, the mice were sacrificed by cervical dislocation. The spleen was isolated aseptically and manually dispersed in cold D-Hank's solution using an injection needle. The dispersed cell suspension was further sieved through a 100 gauge 150 μm diameter stainless steel sieve. After centrifugation at 200 g for 10 minutes, the supernatant was discarded. The cell pellet was re-suspended in 10 volume of Tris-NH4Cl buffer and then kept standing still for 10 minutes at room temperature. The suspended cells were collected by centrifugation at 150 g for 10 minutes. The cells were washed 2-4 times with cold D-Hank's solution by re-suspending and collecting by centrifugation with condition as described above. The washed cells were then diluted to the desired cell densities by RPMI-1640 culture medium, containing 10% fetal bovine serum.
Mice spleen cells were prepared to 4×10^6/ml as described in section 1.1 above. Target cells YAC-1 were brought to log phase and adjusted to 1×10^5/ml. Using a 96 wells cell culture plate, […] were added to the control well containing only the spleen cells; […] and 100 μl culture medium were added to the control well containing only target cells; 100 μl mouse spleen cells and 100 μl target cells were added to the NK activity assay well. Three parallel sets of the above were prepared per mouse.
Samples were centrifuged at 150 g for 10 minutes to collect the cells. The supernatant was discarded and 50 μl/well MTT of 1 mg/ml was added. The reaction-mixture was then shaken for 2 minutes, and incubated at 37° C., 5% CO2 for 4 hours. The supernatant was discarded after centrifugation at 150 g for 10 minutes. […] 40 mM HCl-2-propanol was added and shaken for 3 minutes. An ELISA reader was used to obtain OD570 nm of each well referenced at 630 nm.

anti-SRBC antibody = assay: Sheep Red Blood Cell (SRBC) hemolysis test, antibody formation; assay type: in vivo, BALB/c mice; conditions: for anti-SRBC antibody formation, X ± SD (Unit): healthy mice, SRBC day 12 (IFN-γ, IL-2 3×10^5 IU/kg/day), saline 32 ± 7
Method: Sheep red blood cells (SRBC) were prepared by collecting blood from cervical vein and put into a sterile flask with glass beads. The flask was shaken for 3 minutes and the blood then mixed with Alsever solution (glucose 2.05 g, NaCl 0.4 g, […] 0.8 g, adjust to 100 ml with distilled water) and stored at 4° C. Immediately before use, samples were centrifuged at 130 g, 5 minutes to collect the SRBC. The cells were washed two times by re-suspension and centrifugation in normal saline. Then the cell pellet was collected by centrifugation at 180 g for 10 minutes and re-suspended in saline to make the final working SRBC suspension, 2% (v/v).
Complement was prepared by adding 10 volumes of fresh Cavy serum into one volume centrifuge packed SRBC, and then gently shaking for 30 minutes at 4° C. The SRBC was removed by centrifugation at 200 g for 10 minutes. 10 volumes of normal saline were added to obtain the working complement solution.
The test substances were administered as described in section 1.1, plus intraperitoneal injection 0.2 ml SRBC per mouse on day 12. On the day after the last test substance administration (day 16), blood was collected from the eye canthus and left at room temperature for one hour for serum exudation. After centrifugation at 200 g for 10 minutes, the serum was diluted by 500 times with normal saline.
To 1 ml diluted mouse serum of each mouse, 0.5 ml SRBC suspension was added. Ice cold. Then 1 ml working complement solution was added and incubated at 37° C. water bath for 10 minutes. Reactions were terminated by ice cold. Samples were then centrifuged at 200 g for 10 minutes to obtain the supernatant.
To 1 ml of this supernatant, 3 ml Drabkin solution was added and left at room temperature for 10 minutes. OD540 nm was obtained.
Reference OD540 nm was obtained by mixing 0.25 ml SRBC suspension with Drabkin solution to 4 ml and placed at room temperature for 10 minutes before OD540 nm was taken.
Sample serum index=(OD540 nm of test sample÷reference OD540 nm)×500

spleen = assay: Immunity organ weight test, spleen index; assay type: in vivo, BALB/c mice; conditions: for weight of spleen (spleen index), X ± SD (%): healthy mice, peptide 500 μg/kg/day i.p. 15 days, saline 0.53 ± 0.05; for effect on the weight of the spleen (summary): statistically significant difference from saline in any of the dosage groups 0.5-500 μg/kg/day
Method: as §1
Spleen index (%)=(spleen weight/body weight)×100%

T lymphocyte = T lymphocyte transformation test (ConA-stimulated spleen cells of treated mice, MTT); assay type: in vivo, BALB/c mice
Method: as §2, §3
Spleen cells of density 1×10^6/ml were placed onto a 96 wells cell culture plate, 100 μL/well, three parallel wells each of the assay sample and control sample per mouse. To the assay wells, 100 μl/well ConA of 100 μg/ml in RPMI-1640 was added, and […] plain RPMI-1640 was used for the controls. The cells were incubated for 66 hrs at 37° C., 5% CO2. The cells were then pelleted by centrifugation at 150 g for 10 minutes.
50 μl/well MTT of 1 mg/ml in RPMI-1640 was added to the cell pellet and the cells re-suspended by shaking for 2 minutes. The incubation was continued for 4 hours. The supernatant was discarded after centrifugation at 150 g for 10 minutes. 120 μl 40 mM HCl-2-propanol was added to the cell pellet and shaken for 3 minutes. […]
Each mouse formed three assay wells and three control wells. The Stimulation Index (SI) of each mouse was obtained by first deriving the average OD of the three parallel wells, then dividing the value of the assay wells by the control wells.

[2] = Week 1, peptides 50 μg/kg/day, hydrocortisone 3.3 mg/kg/day i.p., placebo 22.9 ± 22, normal 1.7 ± 1.3
[3] = Week 2, peptides 50 μg/kg/day i.p., hydrocortisone dose halved after first week, placebo 17.2 ± 14.5, normal 2.3 ± 1.1
[4] = Week 3, peptides 50 μg/kg/day i.p., hydrocortisone dose halved after first week, placebo 20.2 ± 29.0, normal 0.4 ± 0.2
[5] = peptide 5 μg/kg/day i.p. 15 days (IFN-γ, IL-2 3×10^5 IU/kg/day)
[6] = peptide 0.5 μg/kg/day i.p. 15 days
[7] = peptide 5 μg/kg/day i.p. 15 days
[8] = peptide 50 μg/kg/day i.p. 15 days
[9] = peptide 500 μg/kg/day i.p. 15 days
[10] = statistically significant difference from saline in any of the dosage groups 0.5-500 μg/kg/day

Molecule	urine protein level [1, 2] [mg]	urine protein level [1, 3] [mg]	urine protein level [1, 4] [mg]	spleen index ([1]; peptides 50 μg/kg/day i.p.)	Serum creatinine level ([1]; peptides 50 μg/kg/day i.p.) [µmol/L]	weight of thymus gland (thymus gland index), X ± SD (%) (thymus gland; [5])	effect on the weight of the thymus gland (summary) (thymus gland)	X ± SD (phagocytotic index) (mononuclear phagocyte)	effect on the phagocytotic activity of mononuclear phagocyte (summary) (mononuclear phagocyte)	effect on the secretion of IFN by T lymphocytes (summary) (interferon (IFN))	activity of T lymphocyte in secreting IFN, X ± SD (IU) (interferon (IFN))	effect on the cytotoxic activity of NK cells (summary) (NK cell)	anti-SRBC antibody formation, X ± SD (Unit) (anti-SRBC antibody; [6])	anti-SRBC antibody formation, X ± SD (Unit) (anti-SRBC antibody; [7])	anti-SRBC antibody formation, X ± SD (Unit) (anti-SRBC antibody; [8])	anti-SRBC antibody formation, X ± SD (Unit) (anti-SRBC antibody; [9])	weight of spleen (spleen index), X ± SD (%) (spleen)	effect on the weight of the spleen (summary) (spleen)	other results
C[C@]12CCC(=O)C=C1CC[C@@H]1[C@@H]2[C@@H](O)C[C@@]2(C)[C@H]1CC[C@]2(O)C(=O)CO [hydrocortisone, Hydrocortisone, reference compound]	3.1 ± 2.0	7.5 ± 7.7	7.6 ± 7.1	4.5 ± 1.4 ×10^−3	239 ± 107	–	–	–	–	–	–	–	–	–	–	–	–	–	growth rate of the rats ([1]; peptides 50 μg/kg/day, hydrocortisone 3.3 mg/kg/day i.p.): slower growth rate than normal
LRVAPQEHPVL [CMS013]	–	–	–	–	–	0.21 ± 0.05 %	increase	6.7 ± 0.2	enhance	enhance	154 ± 15*^@^ IU	increase	7 ± 1 Unit	93 ± 28*^@ Unit	70 ± 9*^@ Unit	80 ± 16*^@ Unit	0.44 ± 0.07	decrease	NK cell cytotoxic activity, X ± SD (%) (NK cell; peptide 500 μg/kg/day i.p. 15 days (IFN-γ, IL-2 3×10^5 IU/kg/day), saline 63 ± 9): 84 ± 9 %
MATAASSSSL [CMS021]	–	–	–	–	–	0.20 ± 0.06 %	increase	–	–	enhance	143 ± 17*^@^ IU	increase	57 ± 9*^@ Unit	82 ± 30*^@ Unit	94 ± 20*^@^ Unit	–	0.36 ± 0.04	decrease	NK cell cytotoxic activity, X ± SD (%) (NK cell; peptide 50 μg/kg/day i.p. 15 days (IFN-γ, IL-2 3×10^5 IU/kg/day), saline 56 ± 8): 88 ± 12*^@^ %; X ± SD (stimulation index) (T lymphocyte; healthy mice, peptide 500 μg/kg/day i.p. 15 days (IFN-γ, IL-2 3×10^5 IU/kg/day), saline 1.3 ± 0.1): 1.6 ± 0.1; effect on T lymphocyte transformation (summary) (T lymphocyte; [10]): enhance; effect on the synthesis of anti-SRBC antibody upon the antigenic challenge (summary) (anti-SRBC antibody; [10]): enhance
VGMGQKDSY	7.0 ± 3.7	5.5 ± 7.9	3.3 ± 3.4	3.3 ± 0.8 ×10^−3	67 ± 1	0.24 ± 0.04*^@^ %	increase	6.7 ± 1.2	enhance	–	–	–	3 ± 1 Unit	–	–	66 ± 16 Unit	–	–	weight of thymus gland (thymus gland index), X ± SD (%) (thymus gland; peptide 0.5 μg/kg/day i.p. 15 days (IFN-γ, IL-2 3×10^5 IU/kg/day)): 0.20 ± 0.03 %; weight of thymus gland (thymus gland index), X ± SD (%) (thymus gland; peptide 50 μg/kg/day i.p. 15 days (IFN-γ, IL-2 3×10^5 IU/kg/day)): 0.23 ± 0.02*^@^ %; renal pathological microscopic examination ([1]; peptides 50 μg/kg/day i.p. 3 weeks, 6 heaviest kidneys per group): all pathological parameters of all rats were normal

Reference: patent US20060167229A1, “Biologically active peptide conjugates” (priority 2002, published 2006)
